Test system: A2058 melanoma cells
Experiment: Growth of A2058 melanoma cells with EP-2 or TPP (Examples 1-3)
Format: cell-based
Description: Saturated solutions of bird extract EP-2, 10 ng/mL triphenyl phosphate (TPP) or control media were used to saturate growth medium containing melanoma cells (A2058 Melanoma cells) at a concentration of approximately 1.2×10^4 cells/well or 1.0×10^4 cells/well. All results are average cell counts for experiments performed in triplicate (see FIG. 1). TPP was investigated on the basis of the findings in Zurhaar WO2008/019452 “Insect Repellent” that the insect repellent factor in an avian extract was TPP.
Pooled solvent vehicle (ethanol, methanol and pentane—used for EP-2 extraction), avian extract EP-2 and TPP were applied to 4×10^4 A2058 cells in 12 well plates.
To further investigate the effect of EP-2 on cells in general, a ⅕ dilution of avian extract EP-2 was placed on 1×10^4 A2058 melanoma cells and HEK293 non-cancerous human embryonic kidney cells.

For `O=P(Oc1ccccc1)(Oc1ccccc1)Oc1ccccc1` [TPP, Triphenyl phosphate], the “lower growth rate than cells containing control medium” value (Example 1, by day 9, 10 ng/mL TPP) was 25% and the “effect on cell growth” value (Example 2) was “moderate effect”.

From patent US20140105996A1, “Avian-Based Treatment” (Cocky Smart Pty Ltd, priority 2011, published 2014)
